Values quoted from earlier work as cited in patent US20170369926A1, “NEW MARKERS FOR EARLY DIAGNOSIS OF OVARIAN CANCER, MONITORING DURING THERAPY, AND NEW THERAPY OPTIONS DURING AND AFTER CHEMOTHERAPY” (Bioventures, LLC, priority 2011, published 2017).

Key:
plasma kallikrein = plasma kallikrein (Homo sapiens, UniProt P03952); conditions: from reference (15)
hepsin = hepsin (Homo sapiens, UniProt P05981); conditions: literature statement
Sequence of hepsin (P05981 whole entry): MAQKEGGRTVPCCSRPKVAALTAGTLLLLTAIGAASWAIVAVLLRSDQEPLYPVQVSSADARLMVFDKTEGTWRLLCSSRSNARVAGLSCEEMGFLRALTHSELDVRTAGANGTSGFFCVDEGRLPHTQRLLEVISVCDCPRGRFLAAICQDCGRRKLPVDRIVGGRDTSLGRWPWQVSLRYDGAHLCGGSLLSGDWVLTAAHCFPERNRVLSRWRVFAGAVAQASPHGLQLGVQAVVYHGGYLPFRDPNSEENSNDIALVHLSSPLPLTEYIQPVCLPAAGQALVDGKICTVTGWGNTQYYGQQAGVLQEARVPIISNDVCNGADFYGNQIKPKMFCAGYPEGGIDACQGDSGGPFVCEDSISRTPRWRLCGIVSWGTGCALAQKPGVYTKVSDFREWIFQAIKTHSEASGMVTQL

Sequence of plasma kallikrein (P03952 20-638, species assumed): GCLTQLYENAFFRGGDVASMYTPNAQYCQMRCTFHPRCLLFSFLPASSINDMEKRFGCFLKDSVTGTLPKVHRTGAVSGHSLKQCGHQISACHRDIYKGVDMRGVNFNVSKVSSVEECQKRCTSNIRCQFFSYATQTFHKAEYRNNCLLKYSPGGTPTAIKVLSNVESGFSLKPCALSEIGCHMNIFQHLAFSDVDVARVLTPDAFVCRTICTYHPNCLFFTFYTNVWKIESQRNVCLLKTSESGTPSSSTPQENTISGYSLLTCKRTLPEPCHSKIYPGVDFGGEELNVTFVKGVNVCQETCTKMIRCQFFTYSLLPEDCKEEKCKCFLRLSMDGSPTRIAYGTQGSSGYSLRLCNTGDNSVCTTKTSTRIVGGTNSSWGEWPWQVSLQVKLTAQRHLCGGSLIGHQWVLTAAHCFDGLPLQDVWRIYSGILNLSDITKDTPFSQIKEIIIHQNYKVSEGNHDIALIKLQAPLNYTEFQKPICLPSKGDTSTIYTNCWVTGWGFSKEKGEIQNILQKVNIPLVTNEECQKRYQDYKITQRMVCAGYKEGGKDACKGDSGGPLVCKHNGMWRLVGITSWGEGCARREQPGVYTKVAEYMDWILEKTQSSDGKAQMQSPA

Row | IC50 (plasma kallikrein) [nM] | inhibition of hepsin (hepsin) | SMILES | effective dose by intraperitoneal injection in mice (intraperitoneal injection, reference (5)) [mg/kg] | effective dose orally in mice (oral, in food)
1 | 1500 |  | CN(C)C(=O)COC(=O)Cc1ccc(OC(=O)c2ccc(NC(=N)N)cc2)cc1.CS(=O)(=O)O [FOY-305] | 20 | 0.1 % of the food
2 |  | inhibits hepsin | CC(C)(Sc1cc(C(C)(C)C)c(O)c(C(C)(C)C)c1)Sc1cc(C(C)(C)C)c(O)c(C(C)(C)C)c1 [Probucol, probucol] |  | 
